According to patent US6476025B1, “Phenylphennanthridines with PDE-IV inhibiting activity” (Altana Pharma AG, priority 1999, dated 2002):

How the values were obtained:
PDE4 = assay: Inhibition of PDE4 activity (method of Bauer and Schwabe, adapted to microtiter plates); assay type: biochemical; conditions: inhibitory concentration as −log IC50 (mol/l)
Protocol: The activity test was carried out according to the method of Bauer and Schwabe, which was adapted to microtiter plates (Naunyn-Schmiedeberg's Arch. Pharmacol. 1980, 311, 193-198). The PDE reaction takes place in the first step here. In a second step, the resulting 5′-nucleotide is cleaved by a 5′-nucleotidase of the snake venom of Crotalus atrox to the uncharged nucleoside. In the third step, the nucleoside is separated from the remaining charged substrate on ion-exchange columns. The columns are eluted directly into minivials, into which 2 ml of scintillator fluid are additionally added, for counting using 2 ml of 30 mM ammonium formate (pH 6.0).
The inhibitory values determined for the compounds according to the invention [inhibitory concentration as −log Ic50 (mol/l)] follow from the following Table A, in which the numbers of the compounds correspond to the numbers of the examples.

SMILES: CCOc1cc2c(cc1OC)C(c1ccc(CCl)cc1)=N[C@H]1CCCC[C@@H]21 (relative stereo) [Compound 19, cis-6-(4-Chloromethylphenyl)-9-ethoxy-8-methoxy-1,2,3,4,4a,10b-hexahydrophenanthridine]
- −log IC50, inhibition of the PDE4 activity (PDE4): 8.59
- melting point: 151 to 153 °C

SMILES: COc1cc2c(cc1OC)C1CCCCC1N=C2c1cccc(C(=O)N2CCCCC2)c1 (single isomer, unassigned; (-)) [Compound 17, (−)-cis-8,9-Dimethoxy-[3-(piperidin-1-ylcarbonyl)phenyl]-1,2,3,4,4a,10b-hexahydrophenanthridine]
- −log IC50, inhibition of the PDE4 activity (PDE4): 8.13
- melting point: 182 to 185 °C

SMILES: CCOc1cc2c(cc1OC)C(c1ccc(OCC)c(OCC3CC3)c1)=NC1CCCCC21 (single isomer, unassigned; (-)) [Compound 39, (−)-cis-9-Ethoxy-8-methoxy-6-[(3-cyclopropylmethoxy-4-ethoxy)phenyl]-1,2,3,4,4a,10b-hexahydrophenanthridine]
- −log IC50, inhibition of the PDE4 activity (PDE4): 8.87
- melting point: 102 to 105 °C

SMILES: COc1cc2c(cc1OC)C1CCCCC1N=C2c1ccc(OC)c(N2C(=O)CCC2=O)c1 (single isomer, unassigned; (-)) [Compound 48, (−)-cis-8,9-Dimethoxy-6-{[3-(2,5-dioxopyrrolidin-1-yl)-4-methoxy]phenyl}-1,2,3,4,4a,10b-hexahydrophenanthridine]
- −log IC50, inhibition of the PDE4 activity (PDE4): 7.67
- melting point: 168 to 177 °C

SMILES: COc1cc2c(cc1OC)[C@@H]1CCCC[C@@H]1N=C2c1ccc(Oc2ccccc2)cc1 [Compound 4, (−)-cis-8,9-Dimethoxy-6-(4-phenoxyphenyl)-1,2,3,4,4a,10b-hexahydrophenanthridine]
- −log IC50, inhibition of the PDE4 activity (PDE4): 7.52
- melting point: 110 to 115 °C

SMILES: COc1cc2c(cc1OC)[C@@H]1CCCC[C@@H]1N=C2c1cccc(OCc2ccccc2)c1 [Compound 7, (−)-cis-8,9-Dimethoxy-6-(3-benzyloxyphenyl)-1,2,3,4,4a,10b-hexahydrophenanthridine]
- −log IC50, inhibition of the PDE4 activity (PDE4): 8.40
- melting point: 118 to 120 °C

SMILES: COC(=O)Cc1ccc(C2=N[C@H]3CCCC[C@H]3c3cc(OC)c(OC)cc32)cc1 [Compound 18, (−)-cis-8,9-Dimethoxy-6-(4-methoxycarbonylmethylphenyl)-1,2,3,4,4a,10b-hexahydrophenanthridine]
- −log IC50, inhibition of the PDE4 activity (PDE4): 7.49
- melting point: 124 to 125 °C

SMILES: COc1cc2c(cc1OC)[C@@H]1CCCC[C@@H]1N=C2c1ccc(C(=O)CC(C)C)cc1 [Compound 23, (−)-cis-8,9-Dimethoxy-6-[4-(3-methylbutyryl)phenyl]-1,2,3,4,4a,10b-hexahydrophenanthridine]
- −log IC50, inhibition of the PDE4 activity (PDE4): 7.5
- melting point: 114 to 117 °C

SMILES: COc1cc2c(cc1OC)[C@@H]1CCCC[C@@H]1N=C2c1ccc(C(=O)CC2CC2)cc1 [Compound 24, (−)-cis-8,9-Dimethoxy-6-[4-cyclopropylmethylcarbonylphenyl]-1,2,3,4,4a,10b-hexahydrophenanthridine]
- −log IC50, inhibition of the PDE4 activity (PDE4): 7.48
- melting point: 93 to 98 °C

SMILES: COc1cccc(C(=O)c2ccc(C3=N[C@H]4CCCC[C@H]4c4cc(OC)c(OC)cc43)cc2)c1 [Compound 30, (−)-cis-8,9-Dimethoxy-6-[4-(3-methoxybenzoyl)phenyl]-1,2,3,4,4a,10b-hexahydrophenanthridine]
- −log IC50, inhibition of the PDE4 activity (PDE4): 7.94
- melting point: 146 to 148 °C

SMILES: COc1cc2c(cc1OC)[C@@H]1CCCC[C@@H]1N=C2c1cccc(OCC2CC2)c1 [Compound 35, (−)-cis-8,9-Dimethoxy-6-(3-cyclopropylmethoxyphenyl)-1,2,3,4,4a,10b-hexahydrophenanthridine]
- −log IC50, inhibition of the PDE4 activity (PDE4): 7.43
- melting point: 54 to 61 °C

SMILES: COc1cc2c(cc1OC)[C@@H]1CCCC[C@@H]1N=C2c1cc(OCC2CC2)cc(OCC2CC2)c1 [Compound 41, (−)-cis8,9-Dimethoxy-6-[3,5-bis(cyclopropylmethoxy)phenyl]-1,2,3,4,4a,10b-hexahydrophenanthridine]
- −log IC50, inhibition of the PDE4 activity (PDE4): 8.03

SMILES: COc1cc2c(cc1OC)[C@@H]1CCCC[C@@H]1N=C2c1ccc(OC(F)F)c(OCC2CC2)c1 [Compound 42, (−)-cis-8,9-Dimethoxy-6-(3-cyclopropylmethoxy-4-difluoromethoxyphenyl)-1,2,3,4,4a,10b-hexahydrophenanthridine]
- −log IC50, inhibition of the PDE4 activity (PDE4): 7.43

SMILES: COc1cc2c(cc1OC)[C@@H]1CCCC[C@@H]1N=C2c1ccc(OC)c(N2CCCC2=O)c1 [Compound 47, (−)-cis-8,9-Dimethoxy-6-[4-methoxy-3-(2-oxopyrrolidin-1-yl)phenyl]-1,2,3,4,4a,10b-hexahydrophenanthridine]
- −log IC50, inhibition of the PDE4 activity (PDE4): 7.33
- melting point: 147 to 152 °C

SMILES: COc1cc2c(cc1OC)[C@@H]1CCCC[C@@H]1N=C2c1cccc(C(C)=O)c1 [Compound 49, (−)cis-8,9-Dimethoxy-6-(3-acetylphenyl)-1,2,3,4,4a,10b-hexahydrophenanthridine]
- −log IC50, inhibition of the PDE4 activity (PDE4): 7.17
- melting point: 112.5 to 114 °C

SMILES: CCC(=O)c1ccc(C2=N[C@H]3CCCC[C@H]3c3cc(OC)c(OC)cc32)cc1 [Compound 50, (−)-cis-8,9-Dimethoxy-6-[4-propionylphenyl]-1,2,3,4,4a,10b-hexahydrophenanthridine]
- −log IC50, inhibition of the PDE4 activity (PDE4): 7.98
